Each compound was assayed against T1, CYP4A (Homo sapiens, UniProt Q02928) (assay: CYP4A enzyme assay (luminescence, Luciferin-ME)). Settings: Compound concentration 5 μM; 70%-90%; read-out: % Inhibition 70%-90%.
T1 construct: purchased; host or cells: bacterial membranes ('bactosome')
T1 sequence (Q02928 5-519): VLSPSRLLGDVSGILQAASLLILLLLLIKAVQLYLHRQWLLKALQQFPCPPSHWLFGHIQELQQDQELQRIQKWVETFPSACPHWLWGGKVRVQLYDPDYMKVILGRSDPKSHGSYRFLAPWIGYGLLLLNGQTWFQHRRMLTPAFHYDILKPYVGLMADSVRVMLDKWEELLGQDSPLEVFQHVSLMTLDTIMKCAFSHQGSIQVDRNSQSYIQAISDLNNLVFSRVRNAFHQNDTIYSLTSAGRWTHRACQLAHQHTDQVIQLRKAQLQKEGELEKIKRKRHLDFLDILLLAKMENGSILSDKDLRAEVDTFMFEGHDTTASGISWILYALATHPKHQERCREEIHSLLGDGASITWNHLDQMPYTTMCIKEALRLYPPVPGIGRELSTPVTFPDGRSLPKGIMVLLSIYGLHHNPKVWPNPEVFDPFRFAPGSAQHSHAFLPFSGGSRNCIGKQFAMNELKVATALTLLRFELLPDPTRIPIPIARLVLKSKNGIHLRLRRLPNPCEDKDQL
Type: biochemical
Method: The CYP4A inhibitory activity of the above compounds of the examples was measured. The reagents used in the experiment were commercially available, and were prepared and used when necessary. The device used for measuring activity was SpectraMax of MOLECULAR DEVICES.
CYP4A bactosome and the compounds to be evaluated (5 μM) were each diluted in assay buffer (100 mM KPO4, 0.1% BSA, 1 mM DTT) and mixed in a 384 well plate (white opaque polystyrene nontreated flat-bottom well), and reaction was carried out at room temperature for 15 minutes. To induce CYP4A reaction, 5 mM Luciferin-ME, NADPH Regeneration system (10× sol. A, 20× sol. B in assay buffer, Cat. Number: V865B, Promega) were sequentially added and mixed, and the reaction was carried out at room temperature for 30 minutes. Then, Luciferin Detection reagent was added thereto and reacted at room temperature for 15 minutes to stop the CYP4A reaction and induce a luminescence reaction. Finally, after measuring the luminescence value using a microplate reader, the inhibition of CYP4A activity by the compounds was evaluated by comparing the luminescence value from each well.

| inhibition at 5 µM [%] | Compound |
| --- | --- |
| 70 to 90 | O=C(C1CCN(S(=O)(=O)c2ccc(Br)cc2)C1)N1CCN(c2ccnc3ccccc23)CC1 (centres unmarked) [Example 31, (1-((4-bromophenyl)sulfonyl)pyrrolidin-3-yl)(4-(quinolin-4-yl)piperazin-1-yl)methanone] |
| 70 to 90 | O=C(C1CCN(S(=O)(=O)c2cccs2)C1)N1CCN(c2ccnc3ccccc23)CC1 (centres unmarked) [Example 36, (4-(quinolin-4-yl)piperazin-1-yl)(1-(thiophen-2-ylsulfonyl)pyrrolidin-3-yl)methanone] |
| 70 to 90 | Cc1ccc(S(=O)(=O)N2CCC(C(=O)N3CCN(c4ccnc5ccccc45)CC3)C2)s1 (centres unmarked) [Example 37, (1-((5-methylthiophen-2-yl)sulfonyl)pyrrolidin-3-yl)(4-(quinolin-4-yl)piperazin-1-yl)methanone] |
| 70 to 90 | O=C(C1CCN(S(=O)(=O)c2ccc(C(F)(F)F)cn2)C1)N1CCN(c2ccnc3ccccc23)CC1 (centres unmarked) [Example 41, (4-(quinolin-4-yl)piperazin-1-yl)(1-((5-(trifluoromethyl)pyridin-2-yl)sulfonyl)pyrrolidin-3-yl)methanone] |
| 70 to 90 | COC(=O)c1sccc1S(=O)(=O)N1CCC(C(=O)N2CCN(c3ccnc4ccccc34)CC2)C1 (centres unmarked) [Example 50, methyl 3-((3-(4-(quinolin-4-yl)piperazine-1-carbonyl)pyrrolidin-1-yl)sulfonyl)thiophene-2-carboxylate] |
| 70 to 90 | COc1ccc(S(=O)(=O)N2CCC(C(=O)N3CCN(c4ccnc5ccccc45)CC3)C2)cn1 (centres unmarked) [Example 51, (1-((6-methoxypyridin-3-yl)sulfonyl)pyrrolidin-3-yl)(4-(quinolin-4-yl)piperazin-1-yl)methanone] |
| 70 to 90 | O=C(C1CCN(Cc2ccc([N+](=O)[O-])cc2)C1)N1CCN(c2ccnc3cc(F)ccc23)CC1 (centres unmarked) [Example 53, (4-(7-fluoroquinolin-4-yl)piperazin-1-yl)(1-(4-nitrobenzyl)pyrrolidin-3-yl)methanone] |
| 70 to 90 | O=C(C1CCN(S(=O)(=O)c2ccc(Br)cc2)CC1)N1CCN(c2ccnc3cc(F)ccc23)CC1 [Example 56, (1-((4-bromophenyl)sulfonyl)piperidin-4-yl)(4-(7-fluoroquinolin-4-yl)piperazin-1-yl)methanone] |

Same assay, conditions: Compound concentration 5 μM; Greater than 90%; read-out: % Inhibition Greater than 90%

| inhibition at 5 µM [%] | Compound |
| --- | --- |
| > 90 | O=C(C1CCN(S(=O)(=O)c2ccc(-c3cccnc3)nc2)C1)N1CCN(c2ccnc3ccccc23)CC1 (centres unmarked) [Example 29, (1-([2,3′-bipyridin]-5-ylsulfonyl)pyrrolidin-3-yl)(4-(quinolin-4-yl)piperazin-1-yl)methanone] |
| > 90 | CC(=O)Nc1ccc(S(=O)(=O)N2CCC(C(=O)N3CCN(c4ccnc5ccccc45)CC3)C2)cn1 (centres unmarked) [Example 30, N-(5-((3-(4-(quinolin-4-yl)piperazine-1-carbonyl)pyrrolidin-1-yl)sulfonyl)pyridin-2-yl)acetamide] |
| > 90 | O=C(C1CCN(S(=O)(=O)c2ccc(-c3cccnc3)cc2)C1)N1CCN(c2ccnc3ccccc23)CC1 (centres unmarked) [Example 32, (1-((4-(pyridin-3-yl)phenyl)sulfonyl)pyrrolidin-3-yl)(4-(quinolin-4-yl)piperazin-1-yl)methanone] |
| > 90 | Cc1ncc(-c2ccc(S(=O)(=O)N3CCC(C(=O)N4CCN(c5ccnc6ccccc56)CC4)C3)cc2)cn1 (centres unmarked) [Example 33, (1-((4-(2-methylpyrimidin-5-yl)phenyl)sulfonyl)pyrrolidin-3-yl)(4-(quinolin-4-yl)piperazin-1-yl)methanone] |
| > 90 | O=C(C1CCN(S(=O)(=O)c2ccc(-c3ccc(O)nc3)cc2)C1)N1CCN(c2ccnc3ccccc23)CC1 (centres unmarked) [Example 34, (1-((4-(6-hydroxypyridin-3-yl)phenyl)sulfonyl)pyrrolidin-3-yl)(4-(quinolin-4-yl)piperazin-1-yl)methanone] |
| > 90 | O=C(C1CCN(S(=O)(=O)c2ccc(N3CCOCC3)cc2)C1)N1CCN(c2ccnc3ccccc23)CC1 (centres unmarked) [Example 35, (1-((4-morpholinophenyl)sulfonyl)pyrrolidin-3-yl)(4-(quinolin-4-yl)piperazin-1-yl)methanone] |
| > 90 | Cc1nn(C)c(C)c1S(=O)(=O)N1CCC(C(=O)N2CCN(c3ccnc4ccccc34)CC2)C1 (centres unmarked) [Example 38, (4-(quinolin-4-yl)piperazin-1-yl)(1-((1,3,5-trimethyl-1H-pyrazol-4-yl)sulfonyl)pyrrolidin-3-yl)methanone] |
| > 90 | Cc1noc(C)c1S(=O)(=O)N1CCC(C(=O)N2CCN(c3ccnc4ccccc34)CC2)C1 (centres unmarked) [Example 39, (1-((3,5-dimethylisoxazol-4-yl)sulfonyl)pyrrolidin-3-yl)(4-(quinolin-4-yl)piperazin-1-yl)methanone] |
| > 90 | Cc1nc(C)c(S(=O)(=O)N2CCC(C(=O)N3CCN(c4ccnc5ccccc45)CC3)C2)s1 (centres unmarked) [Example 40, (1-((2,4-dimethylthiazol-5-yl)sulfonyl)pyrrolidin-3-yl)(4-(quinolin-4-yl)piperazin-1-yl)methanone] |
| > 90 | O=C(C1CCN(S(=O)(=O)c2ncc[nH]2)C1)N1CCN(c2ccnc3ccccc23)CC1 (centres unmarked) [Example 42, (1-((1H-imidazol-2-yl)sulfonyl)pyrrolidin-3-yl)(4-(quinolin-4-yl)piperazin-1-yl)methanone] |
| > 90 | O=C(C1CCN(S(=O)(=O)c2ncn[nH]2)C1)N1CCN(c2ccnc3ccccc23)CC1 (centres unmarked) [Example 43, (1-((1H-1,2,4-triazol-5-yl)sulfonyl)pyrrolidin-3-yl)(4-(quinolin-4-yl)piperazin-1-yl)methanone] |
| > 90 | Cn1cc(S(=O)(=O)N2CCC(C(=O)N3CCN(c4ccnc5ccccc45)CC3)C2)cn1 (centres unmarked) [Example 44, (1-((1-methyl-1H-pyrazol-4-yl)sulfonyl)pyrrolidin-3-yl)(4-(quinolin-4-yl)piperazin-1-yl)methanone] |
| > 90 | Cc1n[nH]c(C)c1S(=O)(=O)N1CCC(C(=O)N2CCN(c3ccnc4ccccc34)CC2)C1 (centres unmarked) [Example 45, (1-((3,5-dimethyl-1H-pyrazol-4-yl)sulfonyl)pyrrolidin-3-yl)(4-(quinolin-4-yl)piperazin-1-yl)methanone] |
| > 90 | Cn1cnc(S(=O)(=O)N2CCC(C(=O)N3CCN(c4ccnc5ccccc45)CC3)C2)c1 (centres unmarked) [Example 46, (1-((1-methyl-1H-imidazol-4-yl)sulfonyl)pyrrolidin-3-yl)(4-(quinolin-4-yl)piperazin-1-yl)methanone] |
| > 90 | CC(=O)Nc1nc(C)c(S(=O)(=O)N2CCC(C(=O)N3CCN(c4ccnc5ccccc45)CC3)C2)s1 (centres unmarked) [Example 47, N-(4-methyl-5-((3-(4-(quinolin-4-yl)piperazine-1-carbonyl)pyrrolidin-1-yl)sulfonyl)thiazol-2-yl)acetamide] |
| > 90 | CC(=O)Nc1nc(C)c(S(=O)(=O)N2CC[C@@H](C(=O)N3CCN(c4ccnc5ccccc45)CC3)C2)s1 [Example 48, (R)—N-(4-methyl-5-((3-(4-(quinolin-4-yl)piperazine-1-carbonyl)pyrrolidin-1-yl)sulfonyl)thiazol-2-yl)acetamide] |
| > 90 | CC(=O)Nc1nc(C)c(S(=O)(=O)N2CC[C@H](C(=O)N3CCN(c4ccnc5ccccc45)CC3)C2)s1 [Example 49, (S)—N-(4-methyl-5-((3-(4-(quinolin-4-yl)piperazine-1-carbonyl)pyrrolidin-1-yl)sulfonyl)thiazol-2-yl)acetamide] |
| > 90 | O=C(C1CCN(S(=O)(=O)c2cccc(F)n2)C1)N1CCN(c2ccnc3ccccc23)CC1 (centres unmarked) [Example 52, (1-((6-fluoropyridin-2-yl)sulfonyl)pyrrolidin-3-yl)(4-(quinolin-4-yl)piperazin-1-yl)methanone] |
| > 90 | O=C(C1CCN(S(=O)(=O)c2ccc([N+](=O)[O-])cc2)CC1)N1CCN(c2ccnc3cc(F)ccc23)CC1 [Example 54, (4-(7-fluoroquinolin-4-yl)piperazin-1-yl)(1-((4-nitrophenyl)sulfonyl)piperidin-4-yl)methanone] |
| > 90 | CC(=O)Nc1cccc(S(=O)(=O)N2CCC(C(=O)N3CCN(c4ccnc5cc(F)ccc45)CC3)CC2)c1 [Example 55, N-(3-((4-(4-(7-fluoroquinolin-4-yl)piperazine-1-carbonyl)piperidin-1-yl)sulfonyl)phenyl)acetamide] |
| 0 | O=C(C1CCN(S(=O)(=O)c2ccc(-c3ccncc3)cc2)CC1)N1CCN(c2ccnc3cc(F)ccc23)CC1 [Example 57, (4-(7-fluoroquinolin-4-yl)piperazin-1-yl)(1-((4-(pyridin-4-yl)phenyl)sulfonyl)piperidin-4-yl)methanone] |

From patent US12612384B2, “Heterocyclic CYP4A inhibitor compounds and compositions thereof” (MBD CO., LTD., priority 2021, dated 2026)
